In US6495577B2, “Pesticidal composition” (Aventis CropScience GmbH, priority 2000, dated 2002) one finds mortality data, which are given here for two molecules.

For this assay, the system named is Trialeurodes vaporariorum. Kind of assay: Mortality of whitefly nymphs on sprayed French bean plants (greenhouse). In kind it is in vivo. To be noted: 240 h, 10 days after application. The text has this: The invention is illustrated in the following Example which describe experiments in which a synergistic effect was observed. The desired concentration of the active ingredients was achieved by diluting, with water, the commercially available 25% by volume emulsifiable concentrate of deltamethrin and 20% by weight water soluble powder of acetamiprid, each of which contained conventional surfactants.
Two plants of two week old French beans (Phaseolus vulgaris) were infested with adult whitefly (Trialeurodes vaporariorum) for oviposition in a closed chamber. After 48 hours, the adults were blown off the plants so that only the eggs stayed at the surface of the leaves. The plants were placed in a greenhouse for 7 days to complete the development of the eggs to the larval stage L 1/2. The plants were then sprayed with the individual compounds and mixtures of the two, by hand with a spray gun, until complete coverage of the plant surfaces with the spray liquid was obtained. The plants were then placed in the greenhouse for a further 10 days. Two replicates of each test was carried. The mortality of the nymphs of Trialeurodes vaporadorum was estimated 10 days after application and the average of the two replicates calculated.
To indicate the existence of synergism between the active components, the results were treated in the manner described by Colby S. R., “Calculating Synergistic and Antagonistic Responses of Herbicide Combinations,” Weeds, 1967, 15, 20-22. In this method, the “expected” percent control, E, of the combination is given by the equation: [formula]
The LC50 in ppm of the mixtures was calculated and compared with the expected LC50 from the expected mortalities according to Colby.

Each structure is given as a SMILES string.

Take `C/C(=N\C#N)N(C)Cc1ccc(Cl)nc1` [acetamiprid, E-N^1-[(6-chloro-3-pyridylmethyl)]-N^2-cyano-N^1-methylacetamidine]: the mortality at 0.1 ppm (acetamiprid 0,1 ppm alone) was found to be 1.25%. Moreover, the mortality at 0.03 ppm (acetamiprid 0,03 ppm alone) is 0%. In addition, the mortality at 0.3 ppm (acetamiprid 0,3 ppm alone) is 7.5%. Besides, the mortality at 1 ppm (acetamiprid 1 ppm alone) turned out to be 23.8%. The mortality at 3 ppm (acetamiprid 3 ppm alone) stood at 56.2%.

Take `CC1(C)[C@H](C(=O)O[C@H](C#N)c2cccc(Oc3ccccc3)c2)[C@@H]1C=C(Br)Br` [deltamethrin, (S)-α-cyano-3-phenoxybenzyl (1R,3R)-3-(2,2-dibromvinyl)-2,2-dimethylcyclopropanecarboxylate]: the mortality at 0.01 ppm (deltamethrin 0,01 ppm alone) is 0.75%. The mortality at 0.1 ppm (deltamethrin 0,1 ppm alone) is 25%. Also, the mortality at 0.02 ppm (deltamethrin 0,02 ppm alone) was 2.5%. Moreover, the mortality at 0.2 ppm (deltamethrin 0,2 ppm alone) amounted to 36.2%. Also, the mortality at 0.06 ppm (deltamethrin 0,06 ppm alone) came out at 15%. The mortality at 0.6 ppm (deltamethrin 0,6 ppm alone) came to 47.5%. Further, the mortality at 0.33 ppm (deltamethrin 0,33 ppm alone) is 47.5%. The mortality at 1 ppm (deltamethrin 1 ppm alone) was 73.8%. For the same molecule, the mortality at 0.006 ppm (deltamethrin 0,006 ppm alone) worked out at 0%. Moreover, where the note is “deltamethrin 0,033 ppm alone”, the mortality at 0.033 ppm turned out to be 8.75%.

As usually defined, the mortality is the percentage killed.
